Measurements as given in patent publication US20240336654A1, “ANTIMICROBIAL PEPTIDOMIMETICS” (SPEXIS AG, priority 2021, published 2024).
Where a SMILES comes first, the peptide text is derived from it. Bridges are numbered along the chain shown (N, C = ends). [ ]: non-standard residue; d: D form. Hyp = O=C(O)[C@@H]1C[C@@H](O)CN1; Cit = NC(=O)NCCC[C@H](N)C(=O)O; Pen = CC(C)(S)[C@H](N)C(=O)O; dDab = NCC[C@@H](N)C(=O)O; Dab = NCC[C@H](N)C(=O)O

Key:
Type in all cases: cell-based
[1] = tested on: Escherichia coli ATCC 25922; settings: ATCC 25922
In short: (§1)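 MICs were determined by CLSI broth microdilution in cation-adjusted Mueller-Hinton II broth with about 5×10^5 CFU/mL inoculum. Peptides were tested in two-fold serial dilutions with 0.002% polysorbate 80 final. MIC in μg/mL is the lowest concentration with no visible growth after 18-20 h at 35 °C.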

[2] = tested on: Klebsiella pneumoniae SSI3010; settings: SSI3010
In short: as §1

[3] = tested on: Escherichia coli MCR-1 Af 45; settings: MCR-1 Af 45
In short: as §1

[4] = tested on: human red blood cells (hRBC); settings: red cells of human, 1 h, 200 μg/mL
In short: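 Peptides at 200 μg/mL incubated 1 h at 37 °C with 20% (v/v) washed human RBC, shaking. Hemolysis from supernatant OD540, expressed as percent of 2.5% Triton X-100 lysis, with PBS as 0%.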

Structure (SMILES) | Escherichia coli ATCC 25922 MIC [1] [µg/mL] | Klebsiella pneumoniae SSI3010 MIC [2] [µg/mL] | Escherichia coli MCR-1 Af45 MIC [3] [µg/mL] | Hemolysis at 0.2 g/L [4] [%]
CC[C@H](C)[C@H](NC(=O)[C@@H]1C[C@@H](O)CN1C(=O)[C@@H](N)C(C)C)C(=O)N[C@@H]1C(=O)N[C@@H](Cc2ccc(O)cc2)C(=O)N[C@@H](CO)C(=O)N[C@@H](CC(N)=O)C(=O)N[C@@H](CCCNC(=N)N)C(=O)N[C@@H](CCN)C(=O)N[C@@H]([C@@H](C)O)C(=O)N[C@H](CCN)C(=O)N[C@@H](CO)C(=O)N[C@@H](CCN)C(=O)N[C@@H](CCN)C(=O)N[C@H](C(=O)N[C@@H](Cc2ccc(O)cc2)C(=O)O)CSSC1(C)C [Example 44, Val-Hyp-Ile-Pen-Tyr-Ser-Asn-Arg-Dab-Thr-^DDab-Ser-Dab-Dab-Cys-Tyr] (H-V[Hyp]I[Pen]YSNR[Dab]T[dDab]S[Dab][Dab]CY-OH; disulfide 4-15) | 0.25 | 0.25 | 0.125 | <1
CC[C@H](C)[C@H](NC(=O)[C@@H]1C[C@@H](O)CN1C(=O)[C@@H](N)C(C)C)C(=O)N[C@@H]1C(=O)N[C@@H](Cc2ccc(O)cc2)C(=O)N[C@@H](CCN)C(=O)N[C@@H](CC(N)=O)C(=O)N[C@@H](CCCNC(=N)N)C(=O)N[C@@H](CCN)C(=O)N[C@@H]([C@@H](C)O)C(=O)N[C@H](CCN)C(=O)N[C@@H](CCCCN)C(=O)N[C@@H](CO)C(=O)N[C@@H](CCN)C(=O)N[C@H](C(=O)N[C@@H](Cc2ccc(O)cc2)C(=O)O)CSSC1(C)C [Example 45, Val-Hyp-Ile-Pen-Tyr-Dab-Asn-Arg-Dab-Thr-^DDab-Lys-Ser-Dab-Cys-Tyr] (H-V[Hyp]I[Pen]Y[Dab]NR[Dab]T[dDab]KS[Dab]CY-OH; disulfide 4-15) | 0.125 | 0.0625 | 0.125 | <1
CC[C@H](C)[C@H](NC(=O)[C@@H]1C[C@@H](O)CN1C(=O)[C@@H](N)C(C)C)C(=O)N[C@@H]1C(=O)N[C@@H](Cc2ccc(O)cc2)C(=O)N[C@@H](CO)C(=O)N[C@@H](CC(N)=O)C(=O)N[C@@H](CCCNC(=N)N)C(=O)N[C@@H](CCN)C(=O)N[C@@H]([C@@H](C)O)C(=O)N[C@H](CCN)C(=O)N[C@@H](CCCCN)C(=O)N[C@@H](C)C(=O)N[C@@H](CCN)C(=O)N[C@H](C(=O)N[C@@H](Cc2ccc(O)cc2)C(=O)O)CSSC1(C)C [Example 46, Val-Hyp-Ile-Pen-Tyr-Ser-Asn-Arg-Dab-Thr-^DDab-Lys-Ala-Dab-Cys-Tyr] (H-V[Hyp]I[Pen]YSNR[Dab]T[dDab]KA[Dab]CY-OH; disulfide 4-15) | 0.5 | 0.5 | 0.25 | <1
CC[C@H](C)[C@H](NC(=O)[C@@H]1C[C@@H](O)CN1C(=O)[C@@H](N)C(C)C)C(=O)N[C@@H]1C(=O)N[C@@H](Cc2ccc(O)cc2)C(=O)N[C@@H](CO)C(=O)N[C@@H](CC(N)=O)C(=O)N[C@@H](CCCNC(=N)N)C(=O)N[C@@H](CCN)C(=O)N[C@@H]([C@@H](C)O)C(=O)N[C@H](CCN)C(=O)N[C@@H](CCCCN)C(=O)N[C@@H](CO)C(=O)N[C@@H](CCN)C(=O)N[C@H](C(=O)N[C@@H](Cc2ccc(O)cc2)C(=O)O)CSSC1(C)C [Example 47, Val-Hyp-Ile-Pen-Tyr-Ser-Asn-Arg-Dab-Thr-^DDab-Lys-Ser-Dab-Cys-Tyr] (H-V[Hyp]I[Pen]YSNR[Dab]T[dDab]KS[Dab]CY-OH; disulfide 4-15) | 0.25 | 0.5 | 0.25 | <1
CC[C@H](C)[C@H](NC(=O)[C@@H]1C[C@@H](O)CN1C(=O)[C@@H](N)C(C)C)C(=O)N[C@@H]1C(=O)N[C@@H](Cc2ccc(O)cc2)C(=O)N[C@@H](CCN)C(=O)N[C@@H](CC(N)=O)C(=O)N[C@@H](CCCNC(=N)N)C(=O)N[C@@H](CCN)C(=O)N[C@@H]([C@@H](C)O)C(=O)N[C@H](CCN)C(=O)N[C@@H](CCCCN)C(=O)N[C@@H](CO)C(=O)N[C@@H](CO)C(=O)N[C@H](C(=O)N[C@@H](Cc2ccc(O)cc2)C(=O)O)CSSC1(C)C [Example 48, Val-Hyp-Ile-Pen-Tyr-Dab-Asn-Arg-Dab-Thr-^DDab-Lys-Ser-Ser-Cys-Tyr] (H-V[Hyp]I[Pen]Y[Dab]NR[Dab]T[dDab]KSSCY-OH; disulfide 4-15) | 0.25 | 0.5 | 0.25 | <1
CC[C@H](C)[C@H](NC(=O)[C@@H]1C[C@@H](O)CN1C(=O)[C@@H](N)C(C)C)C(=O)N[C@@H]1C(=O)N[C@@H](Cc2ccc(O)cc2)C(=O)N[C@@H](CCN)C(=O)N[C@@H](CC(N)=O)C(=O)N[C@@H](CCCNC(=N)N)C(=O)N[C@@H](CCN)C(=O)N[C@@H]([C@@H](C)O)C(=O)N[C@H](CCN)C(=O)N[C@@H](CCCCN)C(=O)N[C@@H]([C@@H](C)O)C(=O)N[C@@H](CCCNC(N)=O)C(=O)N[C@H](C(=O)N[C@@H](Cc2ccc(O)cc2)C(=O)O)CSSC1(C)C [Example 49, Val-Hyp-Ile-Pen-Tyr-Dab-Asn-Arg-Dab-Thr-^DDab-Lys-Thr-Cit-Cys-Tyr] (H-V[Hyp]I[Pen]Y[Dab]NR[Dab]T[dDab]KT[Cit]CY-OH; disulfide 4-15) | 0.25 | 0.5 | 0.25 | <1
CC[C@H](C)[C@@H]1NC(=O)[C@H]([C@@H](C)O)NC(=O)[C@H](CCCCN)NC(=O)[C@@H](CCN)NC(=O)[C@H]([C@@H](C)O)NC(=O)[C@H](CCN)NC(=O)[C@H](CCCNC(=N)N)NC(=O)[C@H](CC(N)=O)NC(=O)[C@H](CCN)NC(=O)[C@H](Cc2ccc(O)cc2)NC(=O)[C@@H](NC(=O)[C@@H](NC(=O)[C@@H]2C[C@@H](O)CN2C(=O)[C@@H](N)C(C)C)[C@@H](C)CC)C(C)(C)SSC[C@@H](C(=O)N[C@@H](Cc2ccc(O)cc2)C(=O)O)NC1=O [Example 50, Val-Hyp-Ile-Pen-Tyr-Dab-Asn-Arg-Dab-Thr-^DDab-Lys-Thr-Ile-Cys-Tyr] (H-V[Hyp]I[Pen]Y[Dab]NR[Dab]T[dDab]KTICY-OH; disulfide 4-15) | 0.5 | 1 | 0.5 | <1
CC[C@H](C)[C@H](NC(=O)[C@@H]1C[C@@H](O)CN1C(=O)[C@@H](N)C(C)C)C(=O)N[C@@H]1C(=O)N[C@@H](Cc2ccc(O)cc2)C(=O)N[C@@H](CCN)C(=O)N[C@@H](CC(N)=O)C(=O)N[C@@H](CCCNC(=N)N)C(=O)N[C@@H](CCN)C(=O)N[C@@H]([C@@H](C)O)C(=O)N[C@H](CCN)C(=O)N[C@@H](CCCCN)C(=O)N[C@@H]([C@@H](C)O)C(=O)N[C@@H](CC(N)=O)C(=O)N[C@H](C(=O)N[C@@H](Cc2ccc(O)cc2)C(=O)O)CSSC1(C)C [Example 51, Val-Hyp-Ile-Pen-Tyr-Dab-Asn-Arg-Dab-Thr-^DDab-Lys-Thr-Asn-Cys-Tyr] (H-V[Hyp]I[Pen]Y[Dab]NR[Dab]T[dDab]KTNCY-OH; disulfide 4-15) | 0.25 | 0.5 | 0.25 | <1
CC[C@H](C)[C@H](NC(=O)[C@@H]1C[C@@H](O)CN1C(=O)[C@@H](N)C(C)C)C(=O)N[C@@H]1C(=O)N[C@@H](Cc2ccc(O)cc2)C(=O)N[C@@H](CCN)C(=O)N[C@@H](CC(N)=O)C(=O)N[C@@H](CCCNC(=N)N)C(=O)N[C@@H](CCN)C(=O)N[C@@H]([C@@H](C)O)C(=O)N[C@H](CCN)C(=O)N[C@@H](CCCCN)C(=O)N[C@@H]([C@@H](C)O)C(=O)N[C@@H](CO)C(=O)N[C@H](C(=O)N[C@@H](Cc2ccc(O)cc2)C(=O)O)CSSC1(C)C [Example 52, Val-Hyp-Ile-Pen-Tyr-Dab-Asn-Arg-Dab-Thr-^DDab-Lys-Thr-Ser-Cys-Tyr] (H-V[Hyp]I[Pen]Y[Dab]NR[Dab]T[dDab]KTSCY-OH; disulfide 4-15) | 0.25 | 1 | 0.25 | <1
CC[C@H](C)[C@H](NC(=O)[C@@H]1C[C@@H](O)CN1C(=O)[C@@H](N)C(C)C)C(=O)N[C@@H]1C(=O)N[C@@H](Cc2ccc(O)cc2)C(=O)N[C@@H](CO)C(=O)N[C@@H](CC(N)=O)C(=O)N[C@@H](CCCNC(=N)N)C(=O)N[C@@H](CCN)C(=O)N[C@@H]([C@@H](C)O)C(=O)N[C@H](CCN)C(=O)N[C@@H](CCCCN)C(=O)N[C@@H](CCCNC(N)=O)C(=O)N[C@@H](CCN)C(=O)N[C@H](C(=O)N[C@@H](Cc2ccc(O)cc2)C(=O)O)CSSC1(C)C [Example 53, Val-Hyp-Ile-Pen-Tyr-Ser-Asn-Arg-Dab-Thr-^DDab-Lys-Cit-Dab-Cys-Tyr] (H-V[Hyp]I[Pen]YSNR[Dab]T[dDab]K[Cit][Dab]CY-OH; disulfide 4-15) | 0.25 | 1 | 0.25 | <1
CC[C@H](C)[C@H](NC(=O)[C@@H]1C[C@@H](O)CN1C(=O)[C@@H](N)C(C)C)C(=O)N[C@@H]1C(=O)N[C@@H](Cc2ccc(O)cc2)C(=O)N[C@@H](CO)C(=O)N[C@@H](CC(N)=O)C(=O)N[C@@H](CCCNC(=N)N)C(=O)N[C@@H](CCN)C(=O)N[C@@H]([C@@H](C)O)C(=O)N[C@H](CCN)C(=O)N[C@@H](CCCCN)C(=O)N[C@@H](CCCNC(=N)N)C(=O)N[C@@H](CCN)C(=O)N[C@H](C(=O)N[C@@H](Cc2ccc(O)cc2)C(=O)O)CSSC1(C)C [Example 54, Val-Hyp-Ile-Pen-Tyr-Ser-Asn-Arg-Dab-Thr-^DDab-Lys-Arg-Dab-Cys-Tyr] (H-V[Hyp]I[Pen]YSNR[Dab]T[dDab]KR[Dab]CY-OH; disulfide 4-15) | 0.125 | 0.25 | 0.0625 | <1
